Laboratory results from paper PMC8952231 (Pharmaceutics, 2022).

Tests used:
[1] = test system: P-gp; conditions: cited from earlier work
[2] = test system: uridine diphosphate glucuronosyltransferase 1A9; conditions: cited from earlier work
[3] = test system: SGLT2:SGLT1 receptor; conditions: compared with empagliflozin; cited from earlier work
[4] = cited from earlier work; for food effect: previous studies
[5] = Randomized, open-label, single-dose crossover pharmacokinetic study; plasma concentrations by LC-MS/MS, non-compartmental analysis; assay type: in vivo, human; conditions: for Intra-Participant CV% of AUCinf / Intra-Participant CV% of AUClast / Intra-Participant CV% of Cmax: IC vs. FCDP crossover; for AUC(0-inf) / AUC(0-t) / Cmax / Tmax / half-life: male, human, plasma
Description: Sixty-three healthy male volunteers (age, 19–45 years; body weight > 50 kg) agreed to participate in the study and signed a written informed consent form. Only male participants were recruited to avoid the potential risk of pregnancy. The participants were considered healthy after a detailed physical examination by physicians involving 12-lead electrocardiographs (ECG), vital sign assessments, and laboratory evaluations, including blood chemistry, hematology, and urinalysis. […] The study protocol was approved (IRB No.2019AN0538, clinicaltrial.gov; NCT05066516) by the Institutional Review Board of Anam Hospital, Korea University Medical Center (Seoul, Korea), and all procedures were conducted following the principles described in the Declaration of Helsinki and Good Clinical Practice guidelines.
This study was conducted as a randomized, open-label, single-dose crossover study. All participants were randomly allocated to group A (period 1: individual components (ICs), period 2: FCDP) or group B (period 1: FCDP, period 2: ICs). […] All medications were biopharmaceutical classification system (BCS) III drugs with high solubility and low permeability. […] For FCDP, microcrystalline cellulose and copovidone were used as major excipients.
On day 1 (the day of each drug administration), serial blood samples were drawn immediately before (0 h) and 0.25, 0.5, 0.75, 1, 1.5, 2, 2.5, 3, 4, 6, 8, 12, 24, 48, and 72 h after each dosing to assess the pharmacokinetics of each drug. The collected samples were centrifuged (at 1977× g, 4 °C) for 15 min, and the extracted plasma samples were stored frozen at −60 °C until they were analyzed.
For dapagliflozin analysis, 100 µL plasma was added to a glass tube containing an internal standard (10 µL of 1 mg/mL dapagliflozin-d5) and 1 mL methanol. The samples were vigorously vortexed and centrifuged at 10,770× g for 3 min. Next, 100 µL of the upper layer was transferred to a polypropylene tube with 10 µL of internal standard (dapagliflozin-d5, Toronto Research, Toronto, ON, Canada) and 300 µL of acetonitrile. After vigorous vortexing and centrifugation at 2191× g for 1 min, 200 µL of the upper layer was transferred to another polypropylene tube with 200 µL of ammonium acetate (0.1%, w/v). A 20 µL aliquot of the solution was finally injected into the LC–MS/MS system; 0.1% ammonium acetate and methanol were used for the mobile phase. The gradient elution mode was applied (methanol proportion ranging between 57.5% and 90% in 5 min) with a constant flow rate of 0.4 mL/min. Dapagliflozin was quantified using the multiple reaction monitoring (MRM) mode. The produced transitions were m/z 426.47 → 166.84 for dapagliflozin and m/z 431.50 → 166.85 for dapagliflozin-d5. The linear function of dapagliflozin concentration ranged from 1 to 400 ng/mL with regression correlation coefficients of the calibration curves (R) greater than 0.999. The intra-day and inter-day CV values were below 15%. The lower limit of quantification (LLOQ) using this method was 1 ng/mL.
Linagliptin-^13C-d3 (TLC Pharmaceutical Standards Ltd., Newmarket, ON, Canada) was used as the internal standard, and 100 µL of plasma was added to a glass tube containing the internal standard (10 µL of 1 mg/mL linagliptin-^13C-d3) and 1 mL methanol. The samples were vigorously vortexed and centrifuged at 10,770× g for 3 min. Next, 100 µL of the upper layer was transferred to a polypropylene tube with 10 µL of the internal standard and 400 µL of methanol. After vigorous vortexing and centrifugation at 2191× g for 1 min, 100 µL of the upper layer was transferred to another polypropylene tube containing 300 µL of formic acid in distilled water (0.1%, w/v). A 20 µL aliquot of the solution was finally injected into the LC–MS/MS system; 0.1% ammonium formate in distilled water and acetonitrile was used as the mobile phase. […] Linagliptin was quantified using MRM mode. […] The intra-day and inter-day CV values were <15%. The LLOQ with this method was 0.04 ng/mL. […]

[6] = test system: cytochrome P450 3A4 enzyme; conditions: in humans; cited from earlier work
[7] = IC: co-administered single oral doses of Forxiga 10 mg and Trajenta 5 mg, fasted healthy males, mean ± SD
[8] = IC: co-administered single oral doses of Forxiga 10 mg and Trajenta 5 mg, fasted healthy males, 0 to 72 h, mean ± SD
[9] = IC: co-administered single oral doses of Forxiga 10 mg and Trajenta 5 mg, fasted healthy males, median (range)

Row | Structure (SMILES) | food effect [4] | Intra-Participant CV% of AUCinf [5] [%] | Intra-Participant CV% of AUClast [5] [%] | Intra-Participant CV% of Cmax [5] [%] | AUC(0-inf) ([5]; po, 5 mg) [ng·h/mL] | AUC(0-t) ([5]; po, 5 mg) [ng·h/mL] | Cmax ([5]; po, 5 mg) [ng/mL] | Tmax ([5]; po, 5 mg) [h] | half-life ([5]; po, 5 mg) [h] | AUC(0-t) [5, 8] [ng·h/mL] | AUC(0-inf) [5, 7] [ng·h/mL] | Cmax [5, 7] [ng/mL] | half-life [5, 7] [h] | Tmax [5, 9] [h] | also measured
1 | CCOc1ccc(Cc2cc([C@@H]3O[C@H](CO)[C@@H](O)[C@H](O)[C@H]3O)ccc2Cl)cc1 [dapagliflozin] | no possible food effect | 7.35 | 7.91 | 20.49 | 516 ± 98.3 | 466 ± 99.3 | 168 ± 42.1 | 0.75 | 12.8 ± 3.84 | 456 ± 92.8 | 500 ± 93.9 | 161 ± 42 | 11.3 ± 3.39 | 0.75 | P-gp inhibitor status ([1]; in vitro studies): not an inhibitor; P-gp substrate status ([1]; in vitro studies): weak substrate; fraction metabolized by uridine diphosphate glucuronosyltransferase 1A9 [2]: approximately 65%; SGLT2:SGLT1 receptor selectivity [3]: lower SGLT2:SGLT1 receptor selectivity; half-life (t1/2) [4]: 8.1 to 12.2 h; CL/F ([5]; FCDP: single oral dose IN-C009 (dapagliflozin 10 mg/linagliptin 5 mg), fasted healthy males, mean ± SD): 20.01 ± 3.6 L/h; CL/F [5, 7]: 20.67 ± 3.89 L/h
2 | CC#CCn1c(N2CCC[C@@H](N)C2)nc2c1c(=O)n(Cc1nc(C)c3ccccc3n1)c(=O)n2C [linagliptin] | no possible food effect | 12.67 | 7.96 | 27.58 | 268 ± 88 | 157 ± 35.9 | 4.2 ± 2.01 | 1.5 | 54.3 ± 12.3 | 155 ± 30.4 | 266 ± 78.7 | 3.95 ± 1.42 | 54.9 ± 13.6 | 2.5 | P-gp inhibition ([1]; at the therapeutic levels): does not inhibit P-gp; Km of P-gp associated transport [1]: 187 µM; substrate for P-glycoprotein (P-gp) ([1]; in humans): known substrate; substrate for cytochrome P450 3A4 enzyme [6]: known substrate; oral bioavailability [4]: approximately 30%; kidney excretion ([4]; human, in vivo): 5%; time to reach steady-state level ([4]; therapeutic dose (5 mg)): ≤ 4 days
3 | N#C[C@@H]1C[C@@H]2C[C@@H]2N1C(=O)[C@@H](N)C12CC3CC(CC(O)(C3)C1)C2 [saxagliptin] | – | – | – | – | – | – | – | – | – | – | – | – | – | – | half-life, metabolite ([4]; metabolite of saxagliptin): 3.1 h
